Measured values published in patent publication US20220125778A1 (priority 2019, published 2022).
Where two headings read alike, the source gives them in different places.

Biological target: β-glucuronidase activity in live E. coli (4MUG to 4MU conversion) (Escherichia coli, UniProt P05804)
Test: Cell-based E. coli assay with 4MUG substrate, with and without esterase pre-treatment of prodrug
Conditions: for IC50: live E. coli
Procedure: For esterase activation, the prodrug is treated with 5 mg/mL esterase for 30 mins at 37° C. to cleave the ester bonds yielding the glucuronide moiety. Following treatment, an inhibitor titration ranging from 10 uM to 10 pM is mixed and preincubated with live E. coli for 5 mins or 4 hours at 37° C. in a microplate with assay buffer (HEPES pH 7, NaCl). Chemically synthesized SY65-G is included as a positive control. Following preincubation, 4-methylumbelliferyl glucuronide (4MUG) is added at a final concentration of 100 uM to the cell and inhibitor mixture. The conversion of 4MUG to 4MU is detected via fluorescence (Ex./Em.: 360/460). […] The untreated prodrug is not active.

[1] = 5 min preincubation, no esterase treatment, read-out: Potency, pre-incubation time 5 min
[2] = 5 min preincubation, treated with 5 mg/mL esterase for 30 mins at 37° C., read-out: Potency, pre-incubation time 5 min, + Esterase
[3] = 4 hour preincubation, no esterase treatment, read-out: Potency, pre-incubation time 4 hour
[4] = 4 hour preincubation, treated with 5 mg/mL esterase for 30 mins at 37° C., read-out: Potency, pre-incubation time 4 hour, + Esterase

Sequence of β-glucuronidase activity in live E. coli (4MUG to 4MU conversion) (P05804 whole entry): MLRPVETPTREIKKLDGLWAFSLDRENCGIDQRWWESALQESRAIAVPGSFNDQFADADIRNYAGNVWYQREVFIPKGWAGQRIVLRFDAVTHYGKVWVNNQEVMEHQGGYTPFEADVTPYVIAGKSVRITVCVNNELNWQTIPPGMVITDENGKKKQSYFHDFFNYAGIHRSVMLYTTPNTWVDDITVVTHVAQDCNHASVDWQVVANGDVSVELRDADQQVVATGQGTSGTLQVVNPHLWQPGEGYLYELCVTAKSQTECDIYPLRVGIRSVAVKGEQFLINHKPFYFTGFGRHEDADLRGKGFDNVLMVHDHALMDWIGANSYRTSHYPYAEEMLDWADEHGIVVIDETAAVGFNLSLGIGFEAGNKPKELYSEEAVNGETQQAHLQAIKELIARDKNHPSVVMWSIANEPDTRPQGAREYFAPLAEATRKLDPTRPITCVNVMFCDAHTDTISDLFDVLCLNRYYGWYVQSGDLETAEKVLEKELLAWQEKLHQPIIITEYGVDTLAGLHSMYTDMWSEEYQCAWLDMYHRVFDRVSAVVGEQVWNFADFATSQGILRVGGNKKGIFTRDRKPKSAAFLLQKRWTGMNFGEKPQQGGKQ

Row | SMILES | IC50 [1] | IC50 [2] | IC50 [3] | IC50 [4] | Potency of esterase treated prodrug versus glucuronide positive control (esterase treated) | Activity of untreated prodrug in cell-based assay (without esterase treatment)
1 | Cc1cc(C)c2[nH]c(=O)c(CN(CCO[C@@H]3O[C@H](C(=O)O)[C@@H](O)[C@H](O)[C@H]3O)C(=O)Nc3ccccc3C(C)C)cc2c1 [SY65-G, (2S,3S,4S,5R,6R)-6-[2-[(6,8-dimethyl-2-oxo-1H-quinolin-3-yl)methyl-[(2-isopropylphenyl)carbamoyl]amino]ethoxy]-3,4,5-trihydroxy-tetrahydropyran-2-carboxylic acid] | 125 nM | 93 nM | 0.53 nM | 0.57 nM | – | –
2 | COC(=O)[C@H]1O[C@@H](OCCN(Cc2cc3cc(C)cc(C)c3[nH]c2=O)C(=O)Nc2ccccc2C(C)C)[C@H](OC(C)=O)[C@@H](OC(C)=O)[C@@H]1OC(C)=O [SY65-G-Ac, Methyl (2S,3S,4S,5R,6R)-3,4,5-triacetoxy-6-[2-[(6,8-dimethyl-2-oxo-1H-quinolin-3-yl)methyl-[(2-isopropylphenyl)carbamoyl]amino]ethoxy]tetrahydropyran-2-carboxylate] | > 10000 nM | 156 nM | > 10000 nM | 0.52 nM | just as potent as the glucuronide positive control | not active
